Experimental data from publication PMC11904984, “The Gut Microbiota‐Xanthurenic Acid‐Aromatic Hydrocarbon Receptor Axis Mediates the Anticolitic Effects of Trilobatin” (Advanced Science, 2025).

Target: T1, aromatic hydrocarbon receptor (AhR) (Homo sapiens, UniProt P35869)
T1 construct: His-tagged recombinant human AhR (MST); recombinant human AhR (SPR)
T1 sequence (P35869 11-848): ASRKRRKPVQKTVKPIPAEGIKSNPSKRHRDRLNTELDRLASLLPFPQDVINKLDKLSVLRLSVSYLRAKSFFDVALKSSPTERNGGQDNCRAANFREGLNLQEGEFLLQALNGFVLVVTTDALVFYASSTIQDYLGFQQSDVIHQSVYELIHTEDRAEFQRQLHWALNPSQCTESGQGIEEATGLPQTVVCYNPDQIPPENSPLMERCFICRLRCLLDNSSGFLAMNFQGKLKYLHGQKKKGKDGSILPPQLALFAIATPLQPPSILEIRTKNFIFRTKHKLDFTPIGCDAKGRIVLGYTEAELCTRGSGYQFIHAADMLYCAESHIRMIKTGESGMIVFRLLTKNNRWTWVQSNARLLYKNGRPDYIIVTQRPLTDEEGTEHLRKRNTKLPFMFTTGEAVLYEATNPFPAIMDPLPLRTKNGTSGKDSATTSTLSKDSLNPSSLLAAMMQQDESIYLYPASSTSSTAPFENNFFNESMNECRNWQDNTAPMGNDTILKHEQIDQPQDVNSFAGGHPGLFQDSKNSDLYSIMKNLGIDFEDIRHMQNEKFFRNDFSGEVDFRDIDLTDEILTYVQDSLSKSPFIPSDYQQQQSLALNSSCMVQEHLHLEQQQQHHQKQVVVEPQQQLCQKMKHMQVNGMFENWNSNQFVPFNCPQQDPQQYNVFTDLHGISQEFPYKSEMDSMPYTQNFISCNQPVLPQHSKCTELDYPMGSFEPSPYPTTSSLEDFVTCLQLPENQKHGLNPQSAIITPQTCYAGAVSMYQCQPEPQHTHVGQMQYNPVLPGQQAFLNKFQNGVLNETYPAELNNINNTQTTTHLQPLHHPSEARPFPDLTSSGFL
Assay: SPR (Biacore, CM5 chip, immobilized AhR); also MST, KD […]
Type: binding

O=C(CCc1ccc(O)cc1)c1c(O)cc(O[C@@H]2O[C@H](CO)[C@@H](O)[C@H](O)[C@H]2O)cc1O [TLB, Trilobatin] was tested, and the Kd was 10.3 µM.
